ChEMBL document CHEMBL1955750, “Benzodiazepines and benzotriazepines as protein interaction inhibitors targeting bromodomains of the BET family” (Bioorg Med Chem, 2012)
The source made the active and inactive calls. No cut-off for these calls is given here.

Columns and labels:
[1] = target: Protein polybromo-1 (Homo sapiens) (UniProt Q86U86); experiment: Binding affinity to PB1 assessed as change in melting temperature at 10 uM by protein stability shift assay
[2] = target: Bromodomain testis-specific protein (Homo sapiens) (UniProt Q58F21); experiment: Binding affinity to BRDT-BD1 assessed as change in melting temperature at 10 uM by protein stability shift assay
[3] = target: T1, Bromodomain-containing protein 4 (Homo sapiens, UniProt O60885); experiment: Binding affinity to BRD4-BD2 assessed as change in melting temperature at 100 uM by protein stability shift assay
[4] = target: Bromodomain adjacent to zinc finger domain protein 2B (Homo sapiens) (UniProt Q9UIF8); experiment: Binding affinity to BAZ2B assessed as change in melting temperature at 100 uM by protein stability shift assay
[5] = target: Bromodomain-containing protein 2 (Homo sapiens) (UniProt P25440); experiment: Binding affinity to BRD2-BD1 assessed as change in melting temperature at 100 uM by protein stability shift assay
Sequence of Bromodomain-containing protein 2 (Homo sapiens) (P25440 whole entry, looked up): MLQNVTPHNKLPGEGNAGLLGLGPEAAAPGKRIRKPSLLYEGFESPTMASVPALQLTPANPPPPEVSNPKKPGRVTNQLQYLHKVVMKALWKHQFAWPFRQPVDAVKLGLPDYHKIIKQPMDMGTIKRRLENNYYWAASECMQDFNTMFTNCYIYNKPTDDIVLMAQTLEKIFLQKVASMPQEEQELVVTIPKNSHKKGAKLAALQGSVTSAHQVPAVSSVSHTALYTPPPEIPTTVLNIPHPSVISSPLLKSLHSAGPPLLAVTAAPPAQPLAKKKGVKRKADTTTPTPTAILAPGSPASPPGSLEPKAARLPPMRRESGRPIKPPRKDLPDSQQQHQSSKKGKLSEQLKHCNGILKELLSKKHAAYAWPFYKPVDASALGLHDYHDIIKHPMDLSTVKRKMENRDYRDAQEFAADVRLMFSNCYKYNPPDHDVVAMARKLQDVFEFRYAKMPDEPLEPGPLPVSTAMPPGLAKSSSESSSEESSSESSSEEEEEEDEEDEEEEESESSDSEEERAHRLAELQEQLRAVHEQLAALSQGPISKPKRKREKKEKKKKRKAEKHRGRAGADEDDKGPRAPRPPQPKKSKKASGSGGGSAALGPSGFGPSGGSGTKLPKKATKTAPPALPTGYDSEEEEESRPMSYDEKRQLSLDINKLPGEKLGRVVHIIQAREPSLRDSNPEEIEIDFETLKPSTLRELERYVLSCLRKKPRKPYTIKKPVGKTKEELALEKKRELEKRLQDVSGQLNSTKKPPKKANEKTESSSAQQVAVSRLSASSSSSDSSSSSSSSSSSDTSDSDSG

[6] = target: Histone acetyltransferase KAT2B (Homo sapiens) (UniProt Q92831); experiment: Binding affinity to PCAF assessed as change in melting temperature at 100 uM by protein stability shift assay
Sequence of Histone acetyltransferase KAT2B (Homo sapiens) (Q92831 whole entry, looked up): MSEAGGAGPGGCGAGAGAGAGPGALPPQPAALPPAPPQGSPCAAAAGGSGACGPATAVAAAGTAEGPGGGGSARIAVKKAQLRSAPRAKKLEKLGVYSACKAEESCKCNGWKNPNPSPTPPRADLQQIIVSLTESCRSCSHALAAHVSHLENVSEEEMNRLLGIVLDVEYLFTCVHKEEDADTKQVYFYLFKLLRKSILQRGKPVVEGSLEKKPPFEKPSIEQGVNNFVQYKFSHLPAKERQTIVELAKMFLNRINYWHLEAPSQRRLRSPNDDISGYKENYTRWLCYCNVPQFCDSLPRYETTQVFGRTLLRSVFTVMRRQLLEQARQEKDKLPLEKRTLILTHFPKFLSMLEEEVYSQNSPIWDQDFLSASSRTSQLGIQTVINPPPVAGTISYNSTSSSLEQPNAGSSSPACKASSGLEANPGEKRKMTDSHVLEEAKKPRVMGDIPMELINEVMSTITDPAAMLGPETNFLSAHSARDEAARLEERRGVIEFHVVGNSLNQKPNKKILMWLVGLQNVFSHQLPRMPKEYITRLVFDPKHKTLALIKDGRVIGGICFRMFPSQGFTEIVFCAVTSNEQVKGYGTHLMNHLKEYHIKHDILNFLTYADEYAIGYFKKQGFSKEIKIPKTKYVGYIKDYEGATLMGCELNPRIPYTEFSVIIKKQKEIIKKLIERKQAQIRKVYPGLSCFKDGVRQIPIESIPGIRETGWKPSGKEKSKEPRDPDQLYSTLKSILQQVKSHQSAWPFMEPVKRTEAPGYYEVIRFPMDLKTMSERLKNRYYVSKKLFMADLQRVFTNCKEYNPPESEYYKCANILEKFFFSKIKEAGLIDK

[7] = target: T1, Bromodomain-containing protein 4
Description: Binding affinity to BRD4-BD1 assessed as change in melting temperature by isothermal titration calorimetry

[8] = target: Histone acetyltransferase KAT2B (Homo sapiens) (UniProt Q92831); experiment: Binding affinity to PCAF assessed as change in melting temperature at 10 uM by protein stability shift assay
[9] = Binding affinity to LOC93349 assessed as change in melting temperature at 100 uM by protein stability shift assay
[10] = target: Bromodomain-containing protein 3 (Homo sapiens) (UniProt Q15059); experiment: Binding affinity to BRD3-BD1 assessed as change in melting temperature at 10 uM by protein stability shift assay
Sequence of Bromodomain-containing protein 3 (Homo sapiens) (Q15059 2-726 limits assumed): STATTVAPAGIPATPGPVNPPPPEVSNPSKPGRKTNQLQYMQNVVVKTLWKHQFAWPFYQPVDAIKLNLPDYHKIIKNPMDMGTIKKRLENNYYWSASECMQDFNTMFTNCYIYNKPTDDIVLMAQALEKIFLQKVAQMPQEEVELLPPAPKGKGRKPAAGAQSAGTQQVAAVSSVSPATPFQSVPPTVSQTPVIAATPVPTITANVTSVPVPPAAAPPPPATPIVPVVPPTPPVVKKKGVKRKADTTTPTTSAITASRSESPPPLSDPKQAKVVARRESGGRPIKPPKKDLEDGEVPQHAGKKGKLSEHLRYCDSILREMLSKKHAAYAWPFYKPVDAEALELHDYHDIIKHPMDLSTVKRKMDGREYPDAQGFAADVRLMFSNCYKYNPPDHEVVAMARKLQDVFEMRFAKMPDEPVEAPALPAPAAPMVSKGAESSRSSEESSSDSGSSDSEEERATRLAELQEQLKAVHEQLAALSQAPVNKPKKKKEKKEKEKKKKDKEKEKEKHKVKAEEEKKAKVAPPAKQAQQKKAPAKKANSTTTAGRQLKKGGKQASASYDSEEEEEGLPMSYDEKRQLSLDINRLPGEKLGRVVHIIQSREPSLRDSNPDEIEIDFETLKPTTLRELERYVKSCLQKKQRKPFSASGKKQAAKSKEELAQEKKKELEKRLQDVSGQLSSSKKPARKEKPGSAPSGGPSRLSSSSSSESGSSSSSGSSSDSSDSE

[11] = target: Bromodomain-containing protein 3 (Homo sapiens) (UniProt Q15059); experiment: Binding affinity to BRD3-BD1 assessed as change in melting temperature at 100 uM by protein stability shift assay
[12] = target: Bromodomain-containing protein 2 (Homo sapiens) (UniProt P25440); experiment: Binding affinity to BRD2-BD1 assessed as change in melting temperature at 10 uM by protein stability shift assay
[13] = target: Protein polybromo-1 (Homo sapiens) (UniProt Q86U86); experiment: Binding affinity to PB1 assessed as change in melting temperature at 100 uM by protein stability shift assay
[14] = target: CREB-binding protein (Homo sapiens) (UniProt Q92793); experiment: Binding affinity to CREBBP assessed as change in melting temperature at 10 uM by protein stability shift assay
Sequence of CREB-binding protein (Homo sapiens) (Q92793 2-2442 limits assumed): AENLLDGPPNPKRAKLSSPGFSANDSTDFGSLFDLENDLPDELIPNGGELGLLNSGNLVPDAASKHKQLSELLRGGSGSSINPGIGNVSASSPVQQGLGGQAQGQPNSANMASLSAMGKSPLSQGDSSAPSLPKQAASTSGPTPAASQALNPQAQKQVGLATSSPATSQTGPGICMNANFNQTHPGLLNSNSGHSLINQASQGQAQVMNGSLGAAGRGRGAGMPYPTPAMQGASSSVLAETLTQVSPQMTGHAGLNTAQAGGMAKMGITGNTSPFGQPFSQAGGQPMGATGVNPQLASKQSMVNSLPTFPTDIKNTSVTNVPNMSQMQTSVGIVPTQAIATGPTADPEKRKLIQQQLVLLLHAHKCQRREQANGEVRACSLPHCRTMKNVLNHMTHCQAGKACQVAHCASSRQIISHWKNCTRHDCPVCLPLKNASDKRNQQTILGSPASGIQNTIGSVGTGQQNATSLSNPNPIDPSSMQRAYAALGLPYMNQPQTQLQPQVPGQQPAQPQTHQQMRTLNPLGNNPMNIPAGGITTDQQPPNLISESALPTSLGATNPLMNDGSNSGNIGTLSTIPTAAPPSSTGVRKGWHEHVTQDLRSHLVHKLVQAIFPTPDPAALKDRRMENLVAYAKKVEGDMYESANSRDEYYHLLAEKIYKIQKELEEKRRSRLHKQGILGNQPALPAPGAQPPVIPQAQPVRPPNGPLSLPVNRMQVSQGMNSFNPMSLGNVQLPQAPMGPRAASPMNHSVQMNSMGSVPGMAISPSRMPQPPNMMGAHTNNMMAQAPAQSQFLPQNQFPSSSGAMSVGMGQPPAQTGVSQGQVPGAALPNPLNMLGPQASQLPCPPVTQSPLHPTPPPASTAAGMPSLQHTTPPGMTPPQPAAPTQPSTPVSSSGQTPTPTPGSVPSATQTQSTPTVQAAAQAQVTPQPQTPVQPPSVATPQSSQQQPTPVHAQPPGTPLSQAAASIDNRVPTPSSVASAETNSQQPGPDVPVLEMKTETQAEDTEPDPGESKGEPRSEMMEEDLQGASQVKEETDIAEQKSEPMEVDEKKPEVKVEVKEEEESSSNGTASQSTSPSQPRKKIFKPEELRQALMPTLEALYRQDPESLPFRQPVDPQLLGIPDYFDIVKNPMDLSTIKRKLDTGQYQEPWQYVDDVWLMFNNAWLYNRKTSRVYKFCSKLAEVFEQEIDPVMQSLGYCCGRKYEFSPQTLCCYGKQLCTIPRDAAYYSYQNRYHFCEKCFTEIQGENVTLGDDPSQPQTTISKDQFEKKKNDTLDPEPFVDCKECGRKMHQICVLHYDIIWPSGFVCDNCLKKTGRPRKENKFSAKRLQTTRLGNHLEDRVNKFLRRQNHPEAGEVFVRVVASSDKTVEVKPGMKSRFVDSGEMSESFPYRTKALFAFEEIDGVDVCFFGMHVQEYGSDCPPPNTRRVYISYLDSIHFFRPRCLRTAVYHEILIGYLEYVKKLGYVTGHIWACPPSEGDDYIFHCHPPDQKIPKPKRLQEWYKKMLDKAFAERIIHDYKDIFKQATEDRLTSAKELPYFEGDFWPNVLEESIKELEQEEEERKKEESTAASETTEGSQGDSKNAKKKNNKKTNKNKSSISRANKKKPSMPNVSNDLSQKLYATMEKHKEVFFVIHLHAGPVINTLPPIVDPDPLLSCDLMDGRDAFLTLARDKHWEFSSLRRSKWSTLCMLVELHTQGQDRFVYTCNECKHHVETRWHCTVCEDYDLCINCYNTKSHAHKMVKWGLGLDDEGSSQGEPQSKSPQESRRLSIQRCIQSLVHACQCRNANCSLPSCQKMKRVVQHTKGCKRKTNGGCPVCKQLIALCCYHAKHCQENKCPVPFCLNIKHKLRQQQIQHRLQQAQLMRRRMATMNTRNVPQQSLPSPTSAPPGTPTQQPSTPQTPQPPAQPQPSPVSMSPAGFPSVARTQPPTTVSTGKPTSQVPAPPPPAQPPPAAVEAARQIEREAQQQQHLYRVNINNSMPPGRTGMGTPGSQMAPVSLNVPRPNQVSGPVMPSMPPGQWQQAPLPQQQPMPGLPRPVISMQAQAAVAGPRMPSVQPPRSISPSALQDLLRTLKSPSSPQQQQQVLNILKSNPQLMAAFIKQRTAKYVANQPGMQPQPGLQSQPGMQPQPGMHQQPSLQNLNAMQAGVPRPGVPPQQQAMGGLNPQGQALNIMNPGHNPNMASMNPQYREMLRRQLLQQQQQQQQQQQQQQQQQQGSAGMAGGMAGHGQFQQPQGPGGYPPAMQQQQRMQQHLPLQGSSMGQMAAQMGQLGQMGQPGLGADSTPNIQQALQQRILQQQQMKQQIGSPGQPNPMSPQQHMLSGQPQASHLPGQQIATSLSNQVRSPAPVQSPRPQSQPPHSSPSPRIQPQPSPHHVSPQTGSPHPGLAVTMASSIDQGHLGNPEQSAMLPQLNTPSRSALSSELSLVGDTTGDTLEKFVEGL

[15] = target: Bromodomain-containing protein 3 (Homo sapiens) (UniProt Q15059); experiment: Binding affinity to BRD3-BD2 assessed as change in melting temperature at 100 uM by protein stability shift assay
[16] = Binding affinity to LOC93349 assessed as change in melting temperature at 10 uM by protein stability shift assay
[17] = target: Bromodomain-containing protein 2 (Homo sapiens) (UniProt P25440); experiment: Binding affinity to BRD2-BD2 assessed as change in melting temperature at 10 uM by protein stability shift assay
[18] = target: T1, Bromodomain-containing protein 4; experiment: Binding affinity to BRD4-BD1 assessed as change in melting temperature at 10 uM by protein stability shift assay
[19] = target: Bromodomain testis-specific protein (Homo sapiens) (UniProt Q58F21); experiment: Binding affinity to BRDT-BD1 assessed as change in melting temperature at 100 uM by protein stability shift assay
[20] = target: Bromodomain adjacent to zinc finger domain protein 2B (Homo sapiens) (UniProt Q9UIF8); experiment: Binding affinity to BAZ2B assessed as change in melting temperature at 10 uM by protein stability shift assay
[21] = target: T1, Bromodomain-containing protein 4; experiment: Binding affinity to BRD4-BD2 assessed as change in melting temperature at 10 uM by protein stability shift assay
[22] = target: Bromodomain-containing protein 2 (Homo sapiens) (UniProt P25440); experiment: Binding affinity to BRD2-BD2 assessed as change in melting temperature at 100 uM by protein stability shift assay
[23] = target: Bromodomain-containing protein 3 (Homo sapiens) (UniProt Q15059); experiment: Binding affinity to BRD3-BD2 assessed as change in melting temperature at 10 uM by protein stability shift assay
[24] = target: T1, Bromodomain-containing protein 4; experiment: Binding affinity to BRD4-BD1 assessed as change in melting temperature at 100 uM by protein stability shift assay
[25] = target: CREB-binding protein (Homo sapiens) (UniProt Q92793); experiment: Binding affinity to CREBBP assessed as change in melting temperature at 100 uM by protein stability shift assay

In the case of `Cc1nnc2n1-c1ccc(Cl)cc1C(c1ccccc1)=NN2C`, the Activity [1] is reported as “Active”, the Activity [2] is reported as “Active” and the ΔTm [3] is reported as < 2 °C. For the same compound, the ΔTm [4] was < 2 °C, the ΔTm [5] was < 2 °C and the ΔTm [6] was < 2 °C. For the same compound, the ΔTm [7] was 4.2 °C, the Activity [8] was “Active” and the ΔTm [9] was < 2 °C. For the same compound, the Activity [10] was “Active”, the ΔTm [11] was < 2 °C and the Activity [12] was “Active”. The ΔTm [13] was < 2 °C, the Activity [14] was “Active” and the ΔTm [15] was < 2 °C. For the same compound, the Activity [16] was “Active”, the Activity [17] was “Active” and the Activity [18] was “Active”. The ΔTm [19] was < 2 °C, the Activity [20] was “inactive” and the Activity [21] was “Active”. For the same compound, the ΔTm [22] was < 2 °C, the Activity [23] was “Active” and the ΔTm [24] was < 2 °C. For the same compound, the ΔTm [25] was < 2 °C.
